Test results taken from patent US20100015225A1, “SOLID DISPERSION OF A NEUROKININ ANTAGONIST” (priority 2006, published 2010).

Assay: Super-saturation studies: in-vitro dissolution in different media (SGF, FaSSIF, FeSSIF, buffer pH 7)
Format: physicochemical
Settings: ~4 mg/ml = 100% release
Description: The in-vitro dissolution of the HPMC-based solid dispersion 1B (Component 1B) and that of the enteric HPMC-P based solid dispersion 2D (Component 2D) were studied in different media and compared to the crystalline-hemihydrate or the amorphous compound A.

| Compound | Concentration of Compound A (FaSSIF, 10 min) [µg/mL] | Concentration of Compound A (FaSSIF, 30 min) [µg/mL] | Concentration of Compound A (FaSSIF, 60 min) [µg/mL] | Concentration of Compound A (FaSSIF, 180 min) [µg/mL] | Concentration of Compound A (FeSSIF, 10 min) [µg/mL] | Concentration of Compound A (FeSSIF, 30 min) [µg/mL] | Concentration of Compound A (FeSSIF, 60 min) [µg/mL] | Concentration of Compound A (FeSSIF, 180 min) [µg/mL] | Concentration of Compound A (SGF, 10 min) [µg/mL] | Concentration of Compound A (SGF, 30 min) [µg/mL] | Concentration of Compound A (SGF, 60 min) [µg/mL] | Concentration of Compound A (SGF, 180 min) [µg/mL] |
| --- | --- | --- | --- | --- | --- | --- | --- | --- | --- | --- | --- | --- |
| CN(C(=O)c1cc(C(F)(F)F)cc(C(F)(F)F)c1)[C@@H](/C=C/C(=O)N[C@@H]1CCCCNC1=O)Cc1ccc(Cl)c(Cl)c1 [A-amorphous, (4R)-4-[N′-methyl-N′-(3,5-bistrifluoromethyl-benzoyl)-amino]-4-(3,4-dichlorobenzyl)-but-2-enoic acid N—[(R)-epsilon-caprolactam-3-yl]-amide] | 102 | 63 | 9 | 0 | 531 | 575 | 48 | 49 | 491 | 0 | 0 | 0 |
| CN(C(=O)c1cc(C(F)(F)F)cc(C(F)(F)F)c1)[C@@H](/C=C/C(=O)N[C@@H]1CCCCNC1=O)Cc1ccc(Cl)c(Cl)c1 [Compd A crystalline (hemihydrate), (4R)-4-[N′-methyl-N′-(3,5-bistrifluoro-methyl-benzoyl)-amino]-4-(3,4-dichlorobenzyl)-but-2-enoic acid N—[(R)-epsilon-caprolactam-3-yl]-amide semihydrate] | 0 | 0 | 0 | 0 | 62 | 54 | 56 | 44 | 0 | 0 | 0 | 0 |
